In this assay the target is T1, Pmt2p (PpPmt2p) (Komagataella phaffii, UniProt F2QTJ8).
T1 construct: gene PMT2; full-length native integral ER membrane protein in intact cells (chromosomal PMT2); Pmt1p-Pmt2p heterodimer, other PMTs also present; with Dolichyl-phosphate-mannose--protein mannosyltransferase 1
The assay is described as follows: HPAEC-PAD of O-mannosylglycan site occupancy on mAb#[…] secreted by intact cells. The settings on record: fed-batch fermentation, PMTi-4 8 µM (Figure 4 legend; Discussion prints 8 mM); read-out is total O-mannosylation by all PMTs, not isolated Pmt2p; direct binding not shown. It counts as cell-based.

T1 sequence (F2QTJ8 entry or part of it): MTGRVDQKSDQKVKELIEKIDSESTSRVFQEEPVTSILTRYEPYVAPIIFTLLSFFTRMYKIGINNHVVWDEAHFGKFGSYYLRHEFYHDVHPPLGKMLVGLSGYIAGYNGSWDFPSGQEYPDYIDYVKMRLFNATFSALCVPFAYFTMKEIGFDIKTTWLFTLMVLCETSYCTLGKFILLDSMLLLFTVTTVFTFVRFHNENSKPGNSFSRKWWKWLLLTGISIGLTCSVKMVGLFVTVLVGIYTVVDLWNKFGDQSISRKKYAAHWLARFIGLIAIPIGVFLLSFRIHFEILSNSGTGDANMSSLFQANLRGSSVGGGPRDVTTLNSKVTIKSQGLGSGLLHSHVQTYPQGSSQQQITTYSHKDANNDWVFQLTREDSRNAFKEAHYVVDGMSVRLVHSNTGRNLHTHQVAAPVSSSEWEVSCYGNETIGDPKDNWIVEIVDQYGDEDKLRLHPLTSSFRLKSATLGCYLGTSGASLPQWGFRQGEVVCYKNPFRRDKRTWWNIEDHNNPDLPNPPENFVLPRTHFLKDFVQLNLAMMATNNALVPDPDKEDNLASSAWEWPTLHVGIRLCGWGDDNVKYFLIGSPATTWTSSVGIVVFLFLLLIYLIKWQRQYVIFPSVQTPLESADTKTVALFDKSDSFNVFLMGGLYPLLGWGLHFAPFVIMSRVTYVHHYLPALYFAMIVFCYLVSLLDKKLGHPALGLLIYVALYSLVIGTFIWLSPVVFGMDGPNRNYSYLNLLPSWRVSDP

As for PMTi-4, the O-mannosylglycan site occupancy was 3.1 O-mannose chains per mAb H2L2 (56 without inhibitor).

The values above are taken from article PMC3648545, “A Phenylalanine to Serine Substitution within an O-Protein Mannosyltransferase Led to Strong Resistance to PMT-Inhibitors in Pichia pastoris” (PLoS ONE, 2013).
